Experimental data published in publication PMC3112249 (Cancer chemotherapy and pharmacology, 2011).

How the values were obtained:
[1] = 107 male patients, paclitaxel 100 mg/m^2 intravenously over 3 hours every 2 weeks, 77% received protease inhibitors; cited from earlier work
[2] = tested on: HIV-associated Kaposi's sarcoma; assay: Objective response, progression-free survival and survival on paclitaxel; type: in vivo, human
[3] = type: in vivo, human; conditions: paclitaxel 100 mg/m^2 IV over 3 h, cycle 1; patients taking protease inhibitors
[4] = cited from earlier work
[5] = 20 evaluable patients, no prior paclitaxel, 100 mg/m^2 IV every 14 days

For `CC(=O)O[C@H]1C(=O)[C@@]2(C)[C@H]([C@H](OC(=O)c3ccccc3)[C@]3(O)C[C@H](OC(=O)[C@H](O)[C@@H](NC(=O)c4ccccc4)c4ccccc4)C(C)=C1C3(C)C)[C@]1(OC(C)=O)CO[C@@H]1C[C@@H]2O` [Paclitaxel], the “differences in the incidence or severity of toxicity, patients receiving protease inhibitors compared to those who did not” value [1] is given as “No differences”, the “best response: partial response, patients” value [2, 5] is given as 30% and the “best response: progressive disease, patients” value [2, 5] is given as 10%. The “best response: stable disease (SD), patients” value [2, 5] was 50%, the “objective response, patients” value ([2]; 20 patients assessable for response) was 30% and the “three year survival rate” value ([2]; 20 patients, no prior paclitaxel) was 67%. For the same compound, the “median progression free survival” value ([2]; 20 patients, no prior paclitaxel, 100 mg/m^2 IV every 14 days) was 7.8 months, the median overall survival ([2]; 20 patients, no prior paclitaxel, median follow-up of 50 months in the 13 surviving patients) was “had not been reached” and the “treatment-related infection of grade 3 or higher, patients” value (20 patients, paclitaxel as first line therapy) was 15%. The “Infection Grade 3, patients no. (%)” value (PI (n=15)) was 3 (20%), the “Abdominal cramps Grade 3, patients no. (%)” value (human, in vivo) was 1 (7%) and the “Anemia Grade 3, patients no. (%)” value (human, in vivo) was 2 (13%). The “Anemia Grade 4, patients no. (%)” value (human, in vivo) was 1 (7%), the “Cardiac toxicity Grade 4, patients no. (%)” value (human, in vivo) was 1 (5%) and the “Eye irritation Grade 3, patients no. (%)” value (human, in vivo) was 1 (7%). For the same compound, the “Fatigue Grade 3, patients no. (%)” value (human, in vivo) was 2 (13%), the “GU toxicity Grade 3, patients no. (%)” value (human, in vivo) was 1 (7%) and the “Granulocytopenia Grade 3, patients no. (%)” value (human, in vivo) was 3 (20%). For the same compound, the “Ileus Grade 4, patients no. (%)” value (human, in vivo) was 1 (7%), the “Leukopenia Grade 4, patients no. (%)” value (human, in vivo) was 1 (20%) and the “Liver toxicity Grade 3, patients no. (%)” value (human, in vivo) was 1 (7%). The “Liver toxicity Grade 4, patients no. (%)” value (human, in vivo) was 1 (7%), the “Metabolic toxicity Grade 3, patients no. (%)” value (human, in vivo) was 1 (7%) and the “Metabolic toxicity Grade 4, patients no. (%)” value (human, in vivo) was 1 (7%). For the same compound, the “Neuro-motor toxicity Grade 3, patients no. (%)” value (human, in vivo) was 1 (7%), the “Pulmonary toxicity Grade 3, patients no. (%)” value (human, in vivo) was 1 (7%) and the “Pulmonary toxicity Grade 4, patients no. (%)” value (human, in vivo) was 1 (20%). The “Skin toxicity Grade 3, patients no. (%)” value (human, in vivo) was 1 (20%), the “Thrombocytopenia Grade 4, patients no. (%)” value (human, in vivo) was 1 (7%) and the “WORST DEGREE of toxicity Grade 3, patients no. (%)” value (human, in vivo) was 7 (47%). For the same compound, the “treatment-related anemia of grade 3 or higher, patients” value (human, in vivo) was 15%, the “treatment-related granulocytopenia of grade 3 or higher, patients” value (human, in vivo) was 40% and the “duration spent at a paclitaxel concentration > 0.05 μM” value [3] was 19.0 (3.0–27.8) hr.

In the case of `O=P1(N(CCCl)CCCl)NCCCO1` (centres unmarked) [cyclophosphamide], the “clearance reduced compared to historical controls” value ([4]; 29 patients receiving CHOP chemotherapy with HAART) is given as 1.5 fold.

For `COc1cccc2c1C(=O)c1c(O)c3c(c(O)c1C2=O)C[C@@](O)(C(=O)CO)C[C@@H]3O[C@H]1C[C@H](N)[C@H](O)[C@H](C)O1` [doxorubicin], the effects on clearance ([4]; human, in vivo) is given as “No significant effects”.
